Measured values from US4771130A, “Target-entrapped drugs” (priority 1984, dated 1988).

Columns and labels:
[1] = system: cataract formation in rat lenses; experiment: Cataract formation in rat lenses in organ culture: X-ray irradiated; type: cell-based; settings: 175 Rads X-rays, galactose, eight days
Method: (§1) Organ culture was performed by a modification of the method of Kinoshita et al (see Biochem. Biophys. Acta 158, 472-475 (1968)) with a modified TC 199 medium using 50-75 gm Sprague-Dawly male rats, care being taken to avoid contamination of the system. Fresh rat lenses were treated with Asub-Q in the manner hereinafter described and incubated in the presence of fructose and in the presence of galactose, in order to determine the effect of the Asub-Q. The Asub-Q treatment involved the following:
This experiment was similar to the photoirradiation experiment except that the lenses were irradiated with 175 Rads of X-rays in place of light. […] Lenses incubated with galactose would be completely opaque (V).

aldose reductase [2] = molecular target: T1, aldose reductase (Rattus norvegicus, UniProt P07943); experiment: Irreversible inhibition of aldose reductase induced by photoirradiation (350 nm); type: biochemical
Method: (§2) Lens aldose reductase used for test purposes was extracted and assayed by the technique reported by Hayman and Kinoshita (see J.Biol. Chem. 240, 877-882 (1965)). The extract was usually adjusted to pH 7.0 and lyophilized. This product is stable indefinitely in the cold and provides particularly reliable assay results since day to day rates are reproducible.
Photolysis of Asub-Q and aldose reductase was studied in the presence and absence of saturating substrate concentrations (0.274 mM glyceraldehyde, and 0.111 mM NADPH) in 0.1M phosphate buffer, pH 6.3. Photolysis was performed in 3 ml quartz spectrophotometer cuvettes in a Rayonet photochemical reactor with a 350 nm maxima light source. The enzyme was separated from the non-covalently bound inhibitor by passing the photolyzed solution through a Sephadex G-25 column as described above. The results are plotted in FIG. 7. […] The enzyme photolyzed with inhibitor in the presence or absence of substrate is 80% inhibited after 10 minutes.

[3] = system: cataract formation in rat lenses; experiment: Cataract formation in rat lenses in organ culture: light irradiated; type: cell-based
Method: as §1
(a) rat lenses were incubated in the dark in an incubation medium containing Asub-Q for two hours to permit the drug to diffuse into the lens;
(b) the lenses were then placed into a fresh medium and irradiated for 10 minutes for complete inhibition of aldose reductase;
(c) the lenses were then placed into a fresh medium for […] with four changes in medium in the first 24 hours to permit non-covalently bound drug to diffuse out; and
(d) the lenses were then incubated in a medium containing fructose or galactose.
In a typical experiment four groups of 20 lens, four to a Petri dish, were used. The first group was supplemented with fructose (30 mM); the second, with galactose (30 mM); the third, with fructose (30 mM) and treated with Asub-Q (0.145 mM); and the fourth, with galactose (30 mM) and treated with Asub-Q ([…]). The lens were photographed with color film on a red background and evaluated on a O to V scale with O assigned to a clear lens and V to a lens with a totally opaque cataract. The procedure for treatment and photolysis of the lens was described above.
The number outside the parenthesis is the status of the lenses: O to V. The number inside the parenthesis is the number of the lenses.

[4] = system: cataract formation in rats; experiment: Cataract formation in galactose-fed rats: light irradiated; type: in vivo, rat
Method: Approximately 5-10 μl of Asub-Q (0.65 mM) dissolved in DMSO was injected into the aqueous humour of the right eye of each of three 75 g. rats. After 1 hour, when the drug had diffused into the lens, the rat was irradiated for 30 minutes in a Rayonet Photochemical Reactor. The rats were fed ad-libinum with a mix of 1:1 chow:galactose. The control eyes (left eye) developed detectable cataracts after 3 days.

aldose reductase [5] = molecular target: T1, aldose reductase; experiment: X-ray induced irreversible inhibition of aldose reductase; type: biochemical
Method: as §2
X-ray irradiation was performed with a General Electric Maximum-100 type X-ray machine using the following settings: 100 kVp, 5 ma, 3 mm Al added, HUL=2.6 mm Al, calibrated output=175 R/min. at 15 cm. Two ml of solution with components at the same concentrations used in photolysis experiments were X-rayed in 50 mm diameter open petri dishes placed at 15.9 cm from the X-ray source. The dosages were varied from 5 to 100 Rads, requiring 1, 2, 3, 4, 34 and 51 seconds exposure, respectively.

[6] = molecular target: T2, aldose reductase in a crude extract of rat lens (Rattus norvegicus, UniProt P07943); experiment: Reversible inhibition of aldose reductase (Ki and type of inhibition); type: biochemical
T2 construct: aldose reductase in a crude extract of rat lens; from tissue; host or cells: rat lens (crude extract, usually lyophilized)
Method: as §2
The Ki and type of inhibition of aldose reductase by Asub-Q (0.274 mM) was determined at pH 6.3 in 0.1M phosphate buffer using a saturating concentration of NADPH (121 uM). The results are plotted in FIG. 6.

[7] = pH 6.3, 0.1M phosphate buffer, NADPH 121 uM

Substance: N-(2-nitro-4-azidophenyl) hexylenediamine-N-(2'-O-quercitrin) [Asub-Q]
- number of lenses per cataract status [1]: 5 clear lenses (O) and 6 with a slight cataract (I)
- inhibition of enzyme photolyzed with inhibitor (aldose reductase [2]; 10 minutes photolysis, 350 nm, in presence or absence of substrate, pH 6.3): 80%
- type of inhibition after irradiation (kinetic analysis) (aldose reductase [2]; light maximum at 350 nm, chromatographic removal of small molecules): both specific irreversible inhibition and non-specifically bound reversible (soluble immobilized inhibitor) inhibition occur
- irreversible inhibition (aldose reductase [2]; one minute photolysis, 350 nm): roughly 40%
- irreversible inhibition on irradiation (aldose reductase [2]; photo- or X-ray irradiation, summary statement): photo- or X-ray sensitive irreversible affinity inhibitor for aldose reductase
- cataract progression vs fructose control ([3]; day 35): not nearly as advanced
- lens clarity ([3]; lenses containing Asub-Q, after three days): remained clear
- resistance to cataract formation vs fructose control lenses ([3]; overall, organ culture): at least as impervious to cataract formation as control lenses that were incubated with fructose
- cataract in treated right eyes ([4]; 5-10 μl of 0.65 mM in aqueous humour, light 30 minutes, 1:1 chow:galactose, 7 days): no cataract was observed
- cataract formation, repeat experiment ([4]; repeated on thirty rats): equivalent results
- loss of enzyme activity (aldose reductase [5]; 20 Rads irradiation or above): approximately two thirds
- irreversible inhibition of aldose reductase (aldose reductase [5]; mixture of Asub-Q and rat lens extract irradiated with X-rays): extensively irreversibly inhibited
- Ki compared with quercitrin ([6]; crude extract of rat lens): very similar to quercitrin
- Ki [6, 7]: 0.48 µM
- type of inhibition [6, 7]: noncompetitive inhibitor
- reversible inhibitor activity compared with quercitrin ([6]; summary statement): about the same as quercitrin
- reversible inhibition of aldose reductase ([6]; without photolysis): reversibly inhibits aldose reductase
